US8653126B2, “Imidazole derivative” (Daiichi Sankyo Company, Limited, priority 2010, dated 2014)

Biological target: T1, S1P lyase (Mus musculus, UniProt Q8R0X7)
T1 construct: The extirpated thymus was crushed; from tissue; host or cells: thymus of BALB/c mice (thymus extract)
T1 sequence (Q8R0X7 1-568): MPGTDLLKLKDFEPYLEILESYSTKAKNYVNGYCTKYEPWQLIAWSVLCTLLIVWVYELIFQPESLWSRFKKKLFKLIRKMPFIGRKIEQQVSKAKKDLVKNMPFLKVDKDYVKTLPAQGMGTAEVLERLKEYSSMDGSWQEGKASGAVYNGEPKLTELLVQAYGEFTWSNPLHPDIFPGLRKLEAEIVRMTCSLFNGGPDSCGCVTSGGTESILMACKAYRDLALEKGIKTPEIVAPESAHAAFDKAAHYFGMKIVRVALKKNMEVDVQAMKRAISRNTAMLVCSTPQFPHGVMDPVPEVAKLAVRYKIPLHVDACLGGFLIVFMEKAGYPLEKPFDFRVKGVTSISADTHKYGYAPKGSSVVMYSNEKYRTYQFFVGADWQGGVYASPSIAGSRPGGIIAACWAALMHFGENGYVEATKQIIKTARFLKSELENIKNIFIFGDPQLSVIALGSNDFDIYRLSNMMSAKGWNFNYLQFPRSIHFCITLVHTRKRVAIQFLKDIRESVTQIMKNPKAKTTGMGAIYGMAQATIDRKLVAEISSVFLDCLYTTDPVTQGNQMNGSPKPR
Test: S1P lyase inhibitory capacity in mice (thymus extract after oral dosing)
Assay type: in vivo
Details: BALB/c mice, single oral dose, S1P lyase activity of thymus extract with [3H]dhS1P
Protocol: Male BALB/c mice at age 6 weeks were purchased from Charles River Laboratories Japan Inc. Mice that had reached age 7 weeks after 1-week acclimation were used for the experiment. A group of 5 animals was used for the experiment. The necessary amount of the analyte was weighed, and subsequently suspended in a 0.5% MC solution using a mortar and a pestle. The solution to be administered was prepared so as to be 10 mL per 1 kg of body weight. The prepared compound solution was administered orally in a single dose using a stomach tube.
Dipotassium dihydrogen ethylenediaminetetraacetate (EDTA-2K, Nacalai Tesque, Inc.) was dissolved with water for injection so as to be 5% (5% EDTA-2K solution). […] At that time, the thymus was also extirpated. The obtained blood was handled under the condition of room temperature until measurement. […]
The extirpated thymus was crushed by means of either a method using zirconia beads in the presence of 500 μl, of a homogenization buffer (50 mM HEPES-NaOH (pH=7.4), 0.15 M NaCl, 10% Glycerol, 1 mM EDTA, 1 mM DTT, complete protease inhibitor cocktail (Roche, #4693132)), or a method using Potter-Elvehjem type homogenizer after mincing. […] After the proteins of the supernatant were quantified with Bradford method, the supernatant was instantly frozen with liquid nitrogen, and subsequently stored at −80° C. […]

CCOCn1cc(CO)nc1C(C)=O [Example 1, 1-(1-Ethoxymethyl-4-hydroxymethyl-1H-imidazol-2-yl)ethanone]
S1P lyase inhibition in mice: inhibited S1P lyase in mice

COCn1cc(CO)nc1C(C)=O [Example 5, 1-(4-Hydroxymethyl-1-methoxymethyl-1H-imidazol-2-yl)ethanone]
S1P lyase inhibition in mice: inhibited S1P lyase in mice
